Data taken from patent US20120295960A1, “TREATMENT REGIMEN FOR PARKINSON'S DISEASE” (priority 2011, published 2012).

System: MPTP macaques
Assay: Dyskinesia studies in drug-naive MPTP primates (video dyskinesia analysis, L-Dopa and apomorphine challenge)
Text: Neurotoxin MPTP was first administrated to 23 macaques until they developed severe Parkinsonism, these were then divided into experimental groups according to the following experiments: • 1. […] The animals were then observed from 2 up to 44 months. A subset of these primates were included for histology, microdialysis, electrophysiology, and metabolism studies. • 2. […] For the latter group, five MPTP macaques received daily oral L-Dopa for 12 weeks (MPTP-L-Dopa group, n=5). • 3. In the third experiment the potential of dyskinesia induction in MPTP macaques was studied by challenging them with a short acting D1/D2 dopaminergic agonist, apomorphine, then with an acute oral dose of L-Dopa. […] Animals were then challenged with L-Dopa and the number of dyskinesias was assessed with a specific software (The Observer®, Noldus)
All animals were assessed daily for their general clinical condition with special attention paid to the nutritional status. At the same time, the general neurological state of each macaque was assessed both pre- and post-lentiviral injections. To objectively quantify our neurological observations, animals were video-taped for 30 minutes before MPTP lesioning and at regular intervals following viral injections. The videos were then analyzed off-line by an examiner blinded to the experimental conditions. […]

Structure (SMILES): CN1CCc2cccc3c2[C@H]1Cc1ccc(O)c(O)c1-3 [apomorphine]
- locomotor activity after acute administration (MPTP-long term and MPTP-LacZ primates): levels similar to that of normal primates
- dyskinesia after acute administration (MPTP-long term and MPTP-Lenti-LacZ animals): debilitating choreiform and dystonic movements
